Experimental data from US12648928B2, “Intervention strategy for prevention or treatment of diabetes mellitus, autoimmune disease, inflammatory disease or cardiovascular disease” (ACADEMISCH MEDISCH CENTRUM, priority 2020, dated 2026).
“Also recorded” adds a separate entry of the source.

Experiments:
[1] = tested on: NF-κB; assay: NF-κB reporter macrophage luciferase assay (RAW264.7); format: cell-based, murine
Method: NF-κB signaling activation was assessed by luciferase activity assay. RAW264.7 cells stably transfected with the 3×-κB-luc plasmid (DNA construct containing three NF-κB sites from the Ig κ light chain promoter coupled to the gene encoding firefly luciferase) were grown in DMEM medium supplemented with 10% heat-inactivated fetal bovine serum, penicillin (100 U/ml), streptomycin (100 μg/ml), L-glutamine (2 mM). Cells were seeded in F-bottom 96-well […] metabolites at different concentrations (6-BT 0,1-100 μM, LysoPC(20:0) 1-10 μM, 16:0-18:2 PE 1-50 μM, MA-GPC 1-100 μM). Afterwards, cells were lysed with 25 μl/well 1×passive lysis buffer and firefly luciferase activity was measured by LUCIFERASE® Assay System (Promega, E1500) on a GLOMAX @-Multi Detection System (Promega).

[2] = tested on: pro-inflammatory M1 macrophages; assay: Seahorse XF intracellular metabolism, M1 macrophages; format: cell-based; settings: M1 macrophages differentiated in presence of LPS and IFNgamma (FIG. 23)
Description: Intracellular metabolism measured using a Seahorse XF Analyzer, Uchimura T., The Innate Immune Sensor NLRC3 Acts as a Rheostat that Fine-Tunes T Cell Responses in Infection and Autoimmunity. Immunity 2019; Chou, AIM2 in regulatory T cells restrains autoimmune diseases, nature 2021.

[3] = tested on: murine CD4+ T cells; assay: In vitro CD4+ T cell activation assay (anti-CD3/anti-CD28); format: cell-based
Method: Primary CD4+ T cells were freshly isolated by negative selection from spleens of C57/B16 mice (N=3 per experiment). Briefly, spleens were smashed in a culture dish and passed twice through a strainer (70 μm and 40 μm, respectively) to obtain a single-cell suspension.
Using the negative selection (CD4+ T Cell Isolation kit, Miltenyi Biotec, #130-10-454). Non-CD4 T cells were depleted by retaining them in LS magnetizing column (Miltenyi Biotec).
Isolated CD4 T cells were cultured in 96-well plates (1×10^5 per well) in RPMI1640 medium supplemented with 10% fetal bovine serum, 100 U/ml penicillin, 100 μg/ml streptomycin, 2 mM L-glutamine. Treatment with the metabolites 6-BT (1/10 μM), LysoPC(20:0) (10/50 μM) or MA-GPC (10/50/100 μM) and activation with 2.5 μg/ml soluble anti-CD3 (145-2C11, eBioscience) and 1 μg/ml soluble anti-CD28 (37.51, eBioscience) antibodies started immediately after seeding in 200 i/well complete RPMI1640 media for a 24-hour period, at the end of which supernatant was harvested and stored at −80° C.
Specific ELISAs (R&D Systems) were utilized to measure the concentration of TNFα, IFNβ, and IFNγ in cell supernatant of murine monocytes, macrophages ad T cells, respectively, according to the manufacturer's instructions. The concentration of insulin after 24-hour treatment with metabolites or after GSIS were determined using Rat insulin ELISA (Mercodia) according to the manufacturer's instructions. GSIS was calculated by subtracting the concentration of insulin at 1 mM glucose to the insulin rate at 22 mM glucose.
Particularly in the context of autoimmune diabetes, the activity of T cells is driving disease onset and progression. […] To mimic antigen presentation, murine CD4 T cells (isolated from spleens; Uchimura T., The Innate Immune Sensor NLRC3 Acts as a Rheostat that Fine-Tunes T Cell Responses in Infection and Autoimmunity. Immunity 2019) were activated by monoclonal antibodies against CD3 and CD28 (2.5 and 1 μg/ml, respectively).

[4] = tested on: INS1E beta cells; assay: Seahorse XF intracellular metabolism, INS1E beta cells; format: cell-based, rat
Description: Lastly, it was investigated whether 6-BT may influence the mitochondrial metabolism of beta cells, which rely on ATP and mitochondrial metabolite production for insulin exocytosis. […] Intracellular metabolism measured using a Seahorse XF Analyzer Uchimura T., The Innate Immune Sensor NLRC3 Acts as a Rheostat that Fine-Tunes T Cell Responses in Infection and Autoimmunity.

[5] = tested on: NF-kB pathway; assay: Phosphorylated p65 subunit after PMA/ionomycin activation, murine CD4 T cells; format: cell-based; settings: PMA 50 μg/ml and ionomycin 1 μg/ml, 5-10 minutes after activation (FIG. 18)
Method: Seeking for the molecular mechanism(s) underlying 6-BT actions, 6-BT impact on the activation of the NF-kB pathway, a central pathway in all inflammatory diseases (beyond autoimmunity) was checked first. […] Upon T cell activation with PMA ([…]) and ionomycin (1 μg/ml), 6-BT could inhibit, at very early time-points (5-10 minutes after activation), the NF-kB signaling. This effect was found in both murine and human (Jurkat cells) CD4 T cells.

`N[C@@H](Cc1c[nH]c2cc(Br)ccc12)C(=O)O` [6-BT, 6-bromotryptophan] was tested, and the “NFκB pathway activation in macrophages” value ([1]; RAW264.7 3x-κB-luc, LPS 10/100 ng/ml 2 hours, different doses (FIG. 7)) was “can inhibit NFκB pathway activation”, the “transcriptional activity of the NFkB complex” value ([1]; RAW264.7 NFkB luciferase reporter, overnight exposure 10-200 μM, 2 hours LPS (10 μg/ml) (FIG. 19)) was “inhibits the transcriptional activity of the NFkB complex in a dose-dependent manner” and the glycolytic flux [2] was “without affecting the glycolytic flux”. For the same molecule, the mitochondrial metabolism [2] was “could enhance the mitochondrial metabolism”, the “production of the Th1 cytokine IFNgamma” value ([3]; CD4 T cells from spleens, anti-CD3 2.5 μg/ml and anti-CD28 1 μg/ml (FIGS. 16, 20)) was “significantly reduced; also recorded: exerted inhibitory effect” and the “Th1 responses in CD4 T cells” value ([3]; anti-CD3 & anti-CD28 mAbs, 24 hours (FIG. 11)) was “dampen Th1 responses”. The “mitochondria metabolism at steady-state” value ([4]; INS1E beta cells (FIG. 24)) was “increased mitochondria metabolism”, the “mitochondria metabolism under hyperglycemia” value ([4]; INS1E beta cells, 25 mM glucose (FIG. 24)) was “increased mitochondria metabolism” and the “NF-kB signaling (phosphorylated p65 subunit)” value [5] was “could inhibit”.
